For 35 compounds, Emax and EC50 results are on record in patent US8394969B2, “Cyclic benzimidazole derivatives useful as anti-diabetic agents” (Merck Sharp & Dohme Corp., priority 2008, dated 2013).

Where a name gives a salt, the structure may show the parent alone. Read-outs that look alike come from different tables or passages of the source. Where only a bound is given, the exact number is not on record here.

By EC50 is commonly meant the concentration at which the effect is half-maximal.

This assay has as its target recombinant human AMPK complex 1 (containing α1β1γ1) (Homo sapiens, UniProt Q13131+Q9Y478). As to the kind of experiment: […] (in vitro AMPK activation assay). In kind it is biochemical. The following applies: for Emax: basal activity subtracted.
Where [1] appears, read: recombinant human AMPK complex 1 (α1β1γ1), read-out: % Maximum AMP Activation of human AMPK Complex 1.

Chain of recombinant human AMPK complex 1 (containing α1β1γ1) (Q13131 whole entry): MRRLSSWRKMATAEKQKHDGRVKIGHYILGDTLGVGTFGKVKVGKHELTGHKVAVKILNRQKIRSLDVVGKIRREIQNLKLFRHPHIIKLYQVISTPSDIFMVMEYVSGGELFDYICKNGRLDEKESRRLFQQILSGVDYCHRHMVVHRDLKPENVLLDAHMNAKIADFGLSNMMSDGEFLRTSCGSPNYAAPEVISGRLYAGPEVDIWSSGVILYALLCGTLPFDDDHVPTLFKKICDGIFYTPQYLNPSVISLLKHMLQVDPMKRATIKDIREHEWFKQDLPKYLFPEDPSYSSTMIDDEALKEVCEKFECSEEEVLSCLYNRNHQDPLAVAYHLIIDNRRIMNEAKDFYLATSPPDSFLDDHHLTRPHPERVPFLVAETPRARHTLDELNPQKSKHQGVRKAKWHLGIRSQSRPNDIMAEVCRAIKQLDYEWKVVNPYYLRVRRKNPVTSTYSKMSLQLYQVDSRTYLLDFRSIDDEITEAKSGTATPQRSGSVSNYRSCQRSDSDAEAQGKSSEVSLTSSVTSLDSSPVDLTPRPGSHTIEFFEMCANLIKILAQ
Chain of recombinant human AMPK complex 1 (containing α1β1γ1) (Q9Y478 whole entry): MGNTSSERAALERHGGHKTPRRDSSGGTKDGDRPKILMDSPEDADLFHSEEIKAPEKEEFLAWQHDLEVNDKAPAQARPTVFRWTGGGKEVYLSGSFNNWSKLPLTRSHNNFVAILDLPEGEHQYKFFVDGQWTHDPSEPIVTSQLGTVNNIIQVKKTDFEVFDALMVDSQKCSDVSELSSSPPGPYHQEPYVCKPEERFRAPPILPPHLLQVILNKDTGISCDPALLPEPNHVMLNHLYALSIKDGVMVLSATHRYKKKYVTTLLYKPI
Chain of recombinant human AMPK complex 1 (containing α1β1γ1) (P54619 whole entry partner): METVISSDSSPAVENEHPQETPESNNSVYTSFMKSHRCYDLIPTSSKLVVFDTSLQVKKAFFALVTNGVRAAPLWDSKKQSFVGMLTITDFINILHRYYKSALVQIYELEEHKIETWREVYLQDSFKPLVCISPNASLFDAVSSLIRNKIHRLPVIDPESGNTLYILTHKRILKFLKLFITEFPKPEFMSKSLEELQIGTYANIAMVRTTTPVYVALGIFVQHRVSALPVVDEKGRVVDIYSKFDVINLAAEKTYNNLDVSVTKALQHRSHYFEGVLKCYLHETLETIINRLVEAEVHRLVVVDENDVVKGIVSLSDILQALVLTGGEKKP

Consider `CC(=O)NS(=O)(=O)c1cccc(Oc2nc3cc(-c4ccc(-c5ccccc5)cc4)c(Cl)cc3[nH]2)c1` [Example 206, N-Acetyl-3-(5-biphenyl-4-yl-6-chloro-1H-benzoimidazol-2-yloxy)-benzenesulfonamide], for which, under setting [1], the Emax was more than 80%.

As for `COc1ccc(-c2cc3nc(Oc4ccc(C)c(C(=O)O)c4)[nH]c3cc2Cl)c(F)c1` [Example 326, 5-{[6-chloro-5-(2-fluoro-4-methoxyphenyl)-1H-benzimidazol-2-yl]oxy}-2-methylbenzoic acid], the EC50 (recombinant human AMPK complex 1 (α1β1γ1), read-out: EC50) was determined as 10 nM.

For the compound `CC(=O)c1ccc(-c2cc3nc(Oc4cc(C)c(C)c(C(=O)O)c4)[nH]c3cc2Cl)cc1` [Example 317, 5-[5-(4-Acetyl-phenyl)-6-chloro-1H-benzoimidazol-2-yloxy]-2,3-dimethyl-benzoic acid], the Emax under setting [1] is more than 80%.

Consider `Cc1ccc(Oc2nc3cc(-c4ccc5c(c4)CC(=O)N5C)c(Cl)cc3[nH]2)cc1C(=O)O` [Example 304, 5-[6-Chloro-5-(1-methyl-2-oxo-2,3-dihydro-1H-indol-5-yl)-1H-benzoimidazol-2-yloxy]-2-methyl-benzoic acid], for which the Emax under setting [1] is more than 80%.

Turning to `COC(=O)c1cc(Oc2nc3cc(C#Cc4ccc(-c5cnco5)cc4)c(Cl)cc3[nH]2)ccc1C` [Example 123, 5-[6-Chloro-5-(4-oxazol-5-yl-phenylethynyl)-1H-benzoimidazol-2-yloxy]-2-methyl-benzoic acid methyl ester], the Emax under setting [1] is more than 80%.

For the compound `Cc1ccc(Oc2nc3cc(-c4ccc(C(C)C)cc4)c(Cl)cc3[nH]2)cc1C(=O)O` [Example 352, 5-[6-Chloro-5-(4-isopropyl-phenyl)-1H-benzoimidazol-2-yloxy]-2-methyl-benzoic acid], the Emax under setting [1] is more than 80%.

Turning to `Cc1cc(Oc2nc3cc(-c4ccc(-c5ccc(O)nc5)cc4)c(Cl)cc3[nH]2)cc(C(=O)O)c1C` [Example 313, 5-{6-Chloro-5-[4-(6-hydroxy-pyridin-3-yl)-phenyl]-1H-benzoimidazol-2-yloxy}-2,3-dimethyl-benzoic acid], under setting [1], the Emax is more than 80%.

In the case of `Cc1ccc(Oc2nc3cc(C#Cc4ccc(Cl)cc4)c(Cl)cc3[nH]2)cc1C(=O)O` [Example 112, 5-[6-Chloro-5-(4-chloro-phenylethynyl)-1H-benzoimidazol-2-yloxy]-2-methyl-benzoic acid], the Emax under setting [1] is more than 80%.

`Cc1ccc(Oc2nc3cc(C#Cc4ccc(-c5nc6ccccc6o5)cc4)c(Cl)cc3[nH]2)cc1C(=O)O` [Example 81, 5-[5-(4-Benzooxazol-2-yl-phenylethynyl)-6-chloro-1H-benzoimidazol-2-yloxy]-2-methyl-benzoic acid]: the Emax under setting [1] is more than 80%.

`COc1ccc2cc(-c3cc4nc(Oc5ccc(Cl)c(C(=O)O)c5)[nH]c4cc3Cl)ccc2c1` [Example 309, 2-Chloro-5-[6-chloro-5-(6-methoxy-naphthalen-2-yl)-1H-benzoimidazol-2-yloxy]-benzoic acid]: the Emax under setting [1] is more than 80%.

Consider `NC(=O)Nc1cccc(Oc2nc3cc(-c4ccc(-c5ccccc5)cc4)c(Cl)cc3[nH]2)c1` [Example 2, [3-(5-Biphenyl-4-yl-6-chloro-1H-benzoimidazol-2-yloxy)-phenyl]-urea], for which, under setting [1], the Emax was more than 80%.

On to `OCc1cccc(Oc2nc3cc(-c4ccc(-c5ccccc5)cc4)c(Cl)cc3[nH]2)c1` [Example 37, [3-(5-Biphenyl-4-yl-6-chloro-1H-benzoimidazol-2-yloxy)-phenyl]-methanol], for which, under setting [1], the Emax was more than 80%.

In the case of `CCCCc1ccc(-c2cc3nc(Oc4ccc(C)c(C(=O)O)c4)[nH]c3cc2Cl)cc1` [Example 344, Ammonium 5-{[5-(4-butylphenyl)-6-chloro-1H-benzimidazol-2-yl]oxy}-2-methylbenzoate], for the setting “read-out: % Maximum AMP Activation of human AMPK Complex 1, recombinant human AMPK complex 1 (α1β1γ1)”, the Emax was more than 80%.

In the case of `Cc1ccc(Oc2nc3cc(-c4ccc(-c5c(C)n[nH]c5C)cc4)c(Cl)cc3[nH]2)cc1C(=O)O` [Example 203, 5-({6-chloro-5-[4-(3,5-dimethyl-1H-pyrazol-4-yl)phenyl]-1H-benzimidazol-2-yl}oxy)-2-methylbenzoic acid], the Emax under setting [1] is more than 80%.

Take `Cc1ccc(Oc2nc3cc(-c4ccc(C(=O)N(C)C)cc4)c(Cl)cc3[nH]2)cc1C(=O)O` [Example 241, 5-[6-Chloro-5-(4-dimethylcarbamoyl-phenyl)-1H-benzoimidazol-2-yloxy]-2-methyl-benzoic acid]: the Emax under setting [1] is more than 80%.

For `O=C(O)c1ccc(F)c(Oc2nc3cc(-c4ccc(-c5ccccc5)cc4)c(Cl)cc3[nH]2)c1` [Example 209, 3-(5-Biphenyl-4-yl-6-chloro-1H-benzoimidazol-2-yloxy)-4-fluoro-benzoic acid], the Emax under setting [1] is more than 80%.

Regarding `Cc1ccc(Oc2nc3cc(-c4ccc5c(c4)CCN5)c(Cl)cc3[nH]2)cc1C(=O)O` [Example 285, 5-[6-Chloro-5-(2,3-dihydro-1H-indol-5-yl)-1H-benzoimidazol-2-yloxy]-2-methyl-benzoic acid], under setting [1], the Emax was more than 80%.

`COc1cc(-c2cc3nc(Oc4ccc(C)c(C(=O)O)c4)[nH]c3cc2Cl)ccc1O` [Example 255, 2-(3-carboxy-4-methylphenoxy)-6-chloro-5-(4-hydroxy-3-methoxyphenyl)-1H-3,1-benzimidazol-3-ium trifluoroacetate]: the Emax under setting [1] was more than 80%.

As for `COC(=O)c1cc(Oc2nc3cc(C#Cc4ccccc4C)c(Cl)cc3[nH]2)ccc1C` [Example 99, 5-(6-Chloro-5-o-tolylethynyl-1H-benzoimidazol-2-yloxy)-2-methyl-benzoic acid methyl ester], under setting [1], the Emax is more than 80%.

In the case of `O=C(O)CCc1cccc(Oc2nc3cc(C#Cc4ccccc4)c(Cl)cc3[nH]2)c1` [Example 24, 3-[3-(6-Chloro-5-phenylethynyl-1H-benzoimidazol-2-yloxy)-phenyl]-propionic acid], the Emax under setting [1] is more than 80%.

As for `Cc1ccc(Oc2nc3cc(C#Cc4cncn4C)c(Cl)cc3[nH]2)cc1C(=O)O` [Example 134, 5-[6-Chloro-5-(3-methyl-3H-imidazol-4-ylethynyl)-1H-benzoimidazol-2-yloxy]-2-methyl-benzoic acid], the Emax under setting [1] is more than 80%.

On to `Cc1ccc(Oc2nc3cc(C#Cc4ccc(-c5nnc(O)[nH]5)cc4)c(Cl)cc3[nH]2)cc1C(=O)O` [Example 77, 5-{6-Chloro-5-[4-(5-hydroxy-4H-[1,2,4]triazol-3-yl)-phenylethynyl]-1H-benzoimidazol-2-yloxy}-2-methyl-benzoic acid], for which the Emax under setting [1] is more than 80%.

For `N#Cc1cccc(Oc2nc3cc(-c4ccc(-c5ccccc5)cc4)c(Cl)cc3[nH]2)c1` [Example 42, 3-(5-Biphenyl-4-yl-6-chloro-1H-benzoimidazol-2-yloxy)-benzonitrile], the Emax under setting [1] was more than 80%.

As to `Cc1ccc(Oc2nc3cc(C#Cc4ccc(-c5csnn5)cc4)c(Cl)cc3[nH]2)cc1C(=O)O` [Example 85, 5-[6-Chloro-5-(4-[1,2,3]thiadiazol-4-yl-phenylethynyl)-1H-benzoimidazol-2-yloxy]-2-methyl-benzoic acid], the Emax under setting [1] is more than 80%.

For the compound `Cc1ccc(Oc2nc3cc(-c4ccc(-c5ccccc5)c(C)c4)c(Cl)cc3[nH]2)cc1C(=O)O` [Example 303, 5-[6-Chloro-5-(2-methyl-biphenyl-4-yl)-1H-benzoimidazol-2-yloxy]-2-methyl-benzoic acid], the Emax under setting [1] is more than 80%.

Take `O=C(O)Cc1ccc(Oc2nc3cc(-c4ccc(-c5ccccc5)cc4)c(Cl)cc3[nH]2)cc1` [Example 26, [4-(5-Biphenyl-4-yl-6-chloro-1H-benzoimidazol-2-yloxy)-phenyl]-acetic acid]: the Emax under setting [1] was more than 80%.

As for `O=C(O)Cc1ccc(Oc2nc3cc(-c4ccc(-c5ccccc5)cc4)c(Cl)cc3[nH]2)cc1C(=O)O` [Example 8, 5-(5-Biphenyl-4-yl-6-chloro-1H-benzoimidazol-2-yloxy)-2-carboxymethyl-benzoic acid], the Emax under setting [1] was more than 80%.

Consider `Cc1ccc(Oc2nc3cc(-c4ccc(-c5ccccc5F)cc4)c(Cl)cc3[nH]2)cc1C(=O)O` [Example 192, 5-{[6-chloro-5-(2′-fluorobiphenyl-4-yl)-1H-benzimidazol-2-yl]oxy}-2-methylbenzoic acid], for which the Emax under setting [1] is more than 80%.

On to `Cc1ccc(Oc2nc3cc(-c4ccc(C5(O)CC5)cc4)c(Cl)cc3[nH]2)cc1C(=O)O` [Example 264, 5-{6-Chloro-5-[4-(1-hydroxy-cyclopropyl)-phenyl]-1H-benzoimidazol-2-yloxy}-2-methyl-benzoic acid], for which the Emax under setting [1] was more than 80%.

As for `O=C(O)c1cc(Oc2nc3cc(C#Cc4ccccc4)c(Cl)cc3[nH]2)cc(C(=O)O)c1` [Example 48, 5-(6-Chloro-5-phenylethynyl-1H-benzoimidazol-2-yloxy)-isophthalic acid], under setting [1], the Emax was more than 80%.

As for `Cc1ccc(Oc2nc3cc(-c4cnc(N5CCCC5)cn4)c(F)cc3[nH]2)cc1C(=O)O` [Example 250, 5-[6-Fluoro-5-(5-pyrrolidin-1-yl-pyrazin-2-yl)-1H-benzoimidazol-2-yloxy]-2-methyl-benzoic acid], under setting [1], the Emax is more than 80%.

For `CN1CCOc2cc(-c3cc4nc(Oc5ccc(CC(=O)O)cc5)[nH]c4cc3Cl)ccc21` [Example 244, {4-[6-Chloro-5-(4-methyl-3,4-dihydro-2H-benzo[1,4]oxazin-7-yl)-1H-benzoimidazol-2-yloxy]-phenyl}-acetic acid], under setting [1], the Emax was more than 80%.

For `COC(=O)c1ccc(Oc2nc3cc(-c4ccc(-c5ccccc5)cc4)c(Cl)cc3[nH]2)cc1O` [Example 31, 4-(5-Biphenyl-4-yl-6-chloro-1H-benzoimidazol-2-yloxy)-2-hydroxy-benzoic acid methyl ester], the Emax under setting [1] was more than 80%.

Turning to `Cc1ccc(Oc2nc3cc(-c4ccc5c(c4)CCN5C(C)C)c(Cl)cc3[nH]2)cc1C(=O)O` [Example 279, 5-[6-Chloro-5-(1-isopropyl-2,3-dihydro-1H-indol-5-yl)-1H-benzoimidazol-2-yloxy]-2-methyl-benzoic acid], the Emax under setting [1] was more than 80%.

As to `Cc1ccc(Oc2nc3cc(C#Cc4ccc(C5(O)CC5)cc4)c(Cl)cc3[nH]2)cc1C(=O)O` [Example 89, 5-{6-Chloro-5-[4-(1-hydroxy-cyclopropyl)-phenylethynyl]-1H-benzoimidazol-2-yloxy}-2-methyl-benzoic acid], the Emax under setting [1] is more than 80%.
